Assay results reported in patent US20240352145A1, “EFFICACY OF ANTI-TROP-2-SN-38 ANTIBODY DRUG CONJUGATES FOR THERAPY OF TUMORS RELAPSED/REFRACTORY TO CHECKPOINT INHIBITORS” (Immunomedics, Inc., priority 2016, published 2024).

Assays:
HCC1806 = assay: SN-38 sensitivity (MTS), HCC1806; assay type: cell-based, human; conditions: HCC1806 (TNBC), 96 h
Procedure: (§1) In vitro cytotoxicity testing—Sensitivity to SN-38 was determined using the 3-(4,5-dimethylthiazol-2-yl)-5-(3-carboxymethoxyphenyl)-2-(4-sulfophenyl)-2H-tetrazolium dye reduction assay (MTS dye reduction assay; Promega, Madison, WI). Briefly, cells were plated into 96-well clear, flat-bottomed plates as described above. SN-38 dissolved in DMSO was diluted with media to a final concentration of 0.004 to 250 nM. […] Growth inhibition was measured as a percent of growth relative to untreated cells. Dose-response curves were generated from the mean of triplicate determinations, and IC50-values were calculated using Prism GraphPad Software.

COLO 205 = assay: In vitro cytotoxicity, COLO 205
Excerpt: (§3) Cell lines, antibodies, and chemotherapeutics—All human cancer cell lines used in this study were purchased from the American Type Culture Collection.

BxPC-3 [1] = assay: Cytotoxicity (MTS), Example 6, BxPC-3; assay type: cell-based, human; conditions: BxPC-3, 96 h
Procedure: (§2) One day prior to adding the ADCs, cells were harvested from tissue culture and plated into 96-well plates. […] Plates were incubated at 37° C. for 96 h. […] Growth inhibition was measured as a percent of growth relative to untreated cells using Microsoft Excel and Prism software (non-linear regression to generate sigmoidal dose response curves which yield IC50-values.

NCI-N87 = assay: Cytotoxicity (MTS), Example 6, NCI-N87; assay type: cell-based, human; conditions: NCI-N87, 96 h
Procedure: as §2

Capan-1 [2] = assay: Cytotoxicity (MTS), Example 6, Capan-1; assay type: cell-based, human; conditions: Capan-1, 96 h
Procedure: as §2

MCF-7 = assay: SN-38 sensitivity (MTS), MCF-7; assay type: cell-based, human; conditions: MCF-7 (ER+), 96 h
Procedure: as §1

HCC38 = assay: SN-38 sensitivity (MTS), HCC38; assay type: cell-based, human; conditions: HCC38 (TNBC), 96 h
Procedure: as §1

MDA-MB-468 [3] = assay: SN-38 sensitivity (MTS), MDA-MB-468; assay type: cell-based, human; conditions: MDA-MB-468 (TNBC), 96 h
Procedure: as §1

p21^Waf1/Cip1 and p53 [4] = assay: Signaling events (p21Waf1/Cip1, p53) in Calu-3; assay type: cell-based, human
Excerpt: (§4) Our initial studies examined the expression of 2 proteins involved in early signaling events (p21^Waf1/Cip1 and p53) and 1 late apoptotic event [cleavage of poly-ADP-ribose polymerase (PARP)] in vitro (not shown).

MDA-MB-231 = assay: SN-38 sensitivity (MTS), MDA-MB-231; assay type: cell-based, human; conditions: MDA-MB-231 (TNBC), 96 h
Procedure: as §1

Calu-3 = assay: In vitro cytotoxicity, Calu-3
Excerpt: as §3

p21^Waf1/Cip1 and p53 [5] = assay: Signaling events (p21Waf1/Cip1, p53) in BxPC-3; assay type: cell-based, human
Excerpt: as §4

BxPC-3 [6] = assay: In vitro cytotoxicity, BxPC-3
Excerpt: as §3

SK-BR-3 = assay: SN-38 sensitivity (MTS), SK-BR-3; assay type: cell-based, human; conditions: SK-BR-3 (HER2+), 96 h
Procedure: as §1

PARP = assay: Immunoblotting, apoptosis signaling, NCI-N87 and BxPC-3; assay type: cell-based, human; conditions: evident at 24 h, increased at 48 h
Procedure: Immunoblotting—Cells (2×10^6) were plated in 6-well plates overnight. […] Parental hRS7 was used as a control for the ADC. Cells were lysed in buffer containing 10 mM Tris, pH 7.4, 150 mM NaCl, protease inhibitors and phosphatase inhibitors (2 mM […], 10 mM NaF). A total of 20 μg protein was resolved in a 4-20% SDS polyacrylamide gel, transferred onto a nitrocellulose membrane and blocked by 5% non-fat milk in 1×TBS-T (Tris-buffered saline, 0.1% Tween-20) for 1 h at room temperature. Membranes were probed overnight at 4° C. with primary antibodies followed by 1-h incubation with antirabbit secondary antibody (1:2500) at room temperature. Signal detection was done using a chemiluminescence kit (Supersignal West Dura, Thermo Scientific; Rockford, IL) with the membranes visualized on a Kodak Image Station […]. Primary antibodies p21Waf1/Cip1 (Cat. No. 2947), Caspase-3 (Cat. No. 9665), Caspase-7 (Cat. No. 9492), Caspase-9 (Cat. No. 9502), PARP (Cat. No. 9542), 3-actin (Cat. No. 4967), pJNK1/2 (Cat. No. 4668), JNK (Cat. No. 9258), and goat anti-rabbit-HRP secondary antibody (Cat. No. 7074) were obtained from Cell Signal Technology (Danvers, MA).

BxPC-3 [7] = assay: Cytotoxicity (MTS), Example 7, BxPC-3; assay type: cell-based, human; conditions: BxPC-3, 96 h
Procedure: as §2, with “ADC,” for “ADCs,”, “plates at 2000 cells per well.” for “plates.”, “IC50-values).” for “IC50-values.”

MDA-MB-468 [8] = assay: Cytotoxicity (MTS), Example 7, MDA-MB-468; assay type: cell-based, human; conditions: MDA-MB-468, 96 h
Procedure: as §2, with “ADC,” for “ADCs,”, “plates at 2000 cells per well.” for “plates.”, “IC50-values).” for “IC50-values.”

PC-3 = assay: In vitro cytotoxicity, PC-3
Excerpt: as §3

p21^WAF1/Cip1 = assay: Immunoblotting, apoptotic pathway, MDA-MB-468; assay type: cell-based, human; conditions: MDA-MB-468, by 48 h
Procedure: Immunoblotting—Cells (2×10^6) were plated in 6-well plates overnight. […] Parental hRS7 was used as a control for the ADC.

Capan-1 [9] = assay: In vitro cytotoxicity, Capan-1
Excerpt: as §3

SK-MES-1 = assay: In vitro cytotoxicity, SK-MES-1
Excerpt: as §3

**Q.** How did the IC50 (HCC1806) turn out when CCc1c2c(nc3ccc(O)cc13)-c1cc3c(c(=O)n1C2)COC(=O)[C@]3(O)CC [SN-38, 7-ethyl-10-hydroxycamptothecin] was run?
**A.** 1 nM

**Q.** What about the IC50 (COLO 205) of the same compound?
**A.** 1.02 nM

**Q.** What about the IC50 (BxPC-3 [1]) of the same compound?
**A.** 1 nM

**Q.** What about the IC50 (NCI-N87) of the same compound?
**A.** 4.3 nM

**Q.** What about the IC50 (Capan-1 [2]) of the same compound?
**A.** 1 nM

**Q.** What about the IC50 (MCF-7) of the same compound?
**A.** 33 nM

**Q.** And the IC50 (HCC38)?
**A.** 2 nM

**Q.** And the IC50 (MDA-MB-468 [3])?
**A.** 2 nM

**Q.** And the “exposure time at which p53 upregulation is evident” value (p21^Waf1/Cip1 and p53 [4])?
**A.** 48 h

**Q.** And the IC50 (MDA-MB-231)?
**A.** 6 nM

**Q.** What about the IC50 (Calu-3) of the same compound?
**A.** 7.19 nM

**Q.** And the “exposure time at which p53 upregulation is evident” value (p21^Waf1/Cip1 and p53 [5])?
**A.** 48 h

**Q.** What about the “increase in p21Waf1/Cip1 expression” value (p21^Waf1/Cip1 and p53 [5]) of the same compound?
**A.** 20 fold

**Q.** What about the IC50 (BxPC-3 [6]) of the same compound?
**A.** 1.44 nM

**Q.** And the IC50 (SK-BR-3)?
**A.** 2 nM

**Q.** What about the PARP cleavage (PARP) of the same compound?
**A.** mediated PARP cleavage

**Q.** What about the IC50 (BxPC-3 [7]) of the same compound?
**A.** 1.6 nM

**Q.** And the IC50 (MDA-MB-468 [8])?
**A.** 0.8 nM

**Q.** And the IC50 (PC-3)?
**A.** 1.86 nM

**Q.** What about the “decrease of p21WAF1/Cip1” value (p21^WAF1/Cip1) of the same compound?
**A.** 31%

**Q.** What about the IC50 (Capan-1 [9]) of the same compound?
**A.** 3.5 nM

**Q.** What about the IC50 (SK-MES-1) of the same compound?
**A.** 8.61 nM
